Measurements as given in the NIST ThermoML archive (doi:10.1021/je0201976).
± gives the expanded uncertainty stated by the source.

Details: Liquid
[1] = Visual observation in an unstirred cell

FC(F)C(F)(F)OCC(F)(F)F [2,2,2-trifluoroethyl 1,1,2,2-tetrafluoroethyl ether]
vapor or sublimation pressure (297.29 K): 27.8 ± 1 kPa
vapor or sublimation pressure (313.67 K): 55.7 ± 1 kPa
vapor or sublimation pressure (322.82 K): 79.9 ± 1 kPa
vapor or sublimation pressure (332.69 K): 114.5 ± 1.1 kPa
vapor or sublimation pressure (342.88 K): 162 ± 1.1 kPa
vapor or sublimation pressure (352.74 K): 221.2 ± 1.2 kPa
vapor or sublimation pressure (362.7 K): 296.8 ± 1.3 kPa
vapor or sublimation pressure (372.69 K): 391.4 ± 1.5 kPa
vapor or sublimation pressure (382.81 K): 510.6 ± 1.8 kPa
vapor or sublimation pressure (392.83 K): 651.7 ± 2.1 kPa
vapor or sublimation pressure (402.83 K): 821.2 ± 2.6 kPa
vapor or sublimation pressure (413.9 K): 1046.2 ± 3.3 kPa
vapor or sublimation pressure (422.92 K): 1260.9 ± 3.9 kPa
vapor or sublimation pressure (432.91 K): 1536.4 ± 4.8 kPa
vapor or sublimation pressure (442.98 K): 1859.3 ± 5.8 kPa
vapor or sublimation pressure (452.95 K): 2231 ± 6.9 kPa
vapor or sublimation pressure (462.99 K): 2668.5 ± 8.3 kPa
vapor or sublimation pressure (463.89 K): 2713.3 ± 8.4 kPa
vapor or sublimation pressure (463.94 K): 2715.8 ± 8.4 kPa
Critical density: 541 ± 2 kg/m3
Critical pressure (Direct measurement): 2713 ± 4 kPa
Critical temperature [1]: 463.89 ± 0.07 K

CCOC(F)(F)C(F)(F)C(F)(F)C(F)(F)F [1-ethoxy-1,1,2,2,3,3,4,4,4-nonafluorobutane]
vapor or sublimation pressure (309.21 K): 22.5 ± 1 kPa
vapor or sublimation pressure (332.68 K): 57 ± 1 kPa
vapor or sublimation pressure (342.71 K): 80.7 ± 1 kPa
vapor or sublimation pressure (347.73 K): 95.4 ± 1 kPa
vapor or sublimation pressure (382.82 K): 271.9 ± 1.3 kPa
vapor or sublimation pressure (392.84 K): 349.2 ± 1.4 kPa
vapor or sublimation pressure (402.87 K): 443.3 ± 1.6 kPa
vapor or sublimation pressure (412.66 K): 553.4 ± 1.9 kPa
vapor or sublimation pressure (422.65 K): 684.8 ± 2.2 kPa
vapor or sublimation pressure (432.89 K): 835.3 ± 2.6 kPa
vapor or sublimation pressure (443.2 K): 1011.6 ± 3.2 kPa
vapor or sublimation pressure (453.14 K): 1212.9 ± 3.8 kPa
vapor or sublimation pressure (473.46 K): 1720.7 ± 5.4 kPa
Critical density: 518 ± 2 kg/m3
Critical pressure (Direct measurement): 1976 ± 5 kPa
Critical temperature [1]: 482.02 ± 0.11 K

FC(F)C(F)(F)COC(F)(F)C(F)C(F)(F)F (configuration not stated) [1,1,1,2,3,3-hexafluoro-3-(2,2,3,3-tetrafluoropropoxy)propane]
vapor or sublimation pressure (285.28 K): 6.2 ± 1.1 kPa
vapor or sublimation pressure (302.65 K): 12.5 ± 1.3 kPa
vapor or sublimation pressure (312.63 K): 19.8 ± 1.5 kPa
vapor or sublimation pressure (322.62 K): 30.9 ± 1.9 kPa
vapor or sublimation pressure (332.69 K): 45.8 ± 2.5 kPa
vapor or sublimation pressure (342.69 K): 62.9 ± 3.4 kPa
vapor or sublimation pressure (352.75 K): 88.5 ± 4.6 kPa
vapor or sublimation pressure (362.72 K): 129.9 ± 6.7 kPa
vapor or sublimation pressure (372.8 K): 175.3 ± 8.9 kPa
vapor or sublimation pressure (382.83 K): 229 ± 12 kPa
vapor or sublimation pressure (392.86 K): 294.8 ± 15 kPa
vapor or sublimation pressure (402.89 K): 374.7 ± 19 kPa
vapor or sublimation pressure (412.92 K): 469.1 ± 24 kPa
vapor or sublimation pressure (422.94 K): 581.8 ± 29 kPa
vapor or sublimation pressure (432.97 K): 715.5 ± 36 kPa
vapor or sublimation pressure (443 K): 870.9 ± 43 kPa
vapor or sublimation pressure (453.03 K): 1049.5 ± 52 kPa
vapor or sublimation pressure (463.06 K): 1252.9 ± 62 kPa
vapor or sublimation pressure (473.08 K): 1484.4 ± 74 kPa
vapor or sublimation pressure (481.14 K): 1745.4 ± 87 kPa
vapor or sublimation pressure (490.97 K): 2048 ± 100 kPa
vapor or sublimation pressure (499.97 K): 2137.8 ± 400 kPa
vapor or sublimation pressure (500.79 K): 2176.3 ± 400 kPa
Critical pressure: 2172 ± 82 kPa
Critical temperature: 516.21 ± 0.31 K

FC(F)OCC(F)(F)C(F)(F)F [difluoromethyl 2,2,3,3,3-pentafluoropropyl ether]
vapor or sublimation pressure (298.42 K): 44.2 ± 1 kPa
vapor or sublimation pressure (322.49 K): 111.5 ± 1.1 kPa
vapor or sublimation pressure (332.63 K): 157.2 ± 1.1 kPa
vapor or sublimation pressure (342.7 K): 216.6 ± 1.2 kPa
vapor or sublimation pressure (352.65 K): 290.7 ± 1.3 kPa
vapor or sublimation pressure (362.73 K): 384.1 ± 1.5 kPa
vapor or sublimation pressure (372.78 K): 498.1 ± 1.8 kPa
vapor or sublimation pressure (382.79 K): 637.5 ± 2.1 kPa
vapor or sublimation pressure (392.82 K): 807.7 ± 2.5 kPa
vapor or sublimation pressure (402.86 K): 1006.3 ± 3.2 kPa
vapor or sublimation pressure (412.9 K): 1244.5 ± 3.9 kPa
vapor or sublimation pressure (422.93 K): 1524.9 ± 4.8 kPa
vapor or sublimation pressure (432.96 K): 1858.4 ± 5.8 kPa
vapor or sublimation pressure (442.98 K): 2203.3 ± 6.9 kPa
vapor or sublimation pressure (454.99 K): 2769 ± 8.7 kPa
vapor or sublimation pressure (455.27 K): 2796.4 ± 8.8 kPa
Critical density: 576 ± 2 kg/m3
Critical pressure (Direct measurement): 2773 ± 9 kPa
Critical temperature [1]: 455.1 ± 0.1 K
